Laboratory results reported in patent publication US7696408B2, “Method to enhance Agrobacterium-mediated transformation of plants” (Regents of the University of Minnesota, priority 1999, dated 2010).
Like-named read-outs stand apart in the source and are kept apart here.

What was measured:
[1] = system: soybean cot-node explants; test: GUS transient expression on soybean cot-node explants after 5-day co-cultivation with Agrobacterium (T-DNA delivery); type: cell-based, Glycine max; settings: for infection after co-cultivation (experiment #9): 400 mg/l in co-cultivation media, MN0901, AGL1 and LBA4404
Description: For each seedling, the roots and the majority of the hypocotyl were removed approximately 3-5 mm below the cotyledonary node by cutting the hypocotyl with a scalpel (Hinchee et al., 1998). The two cotyledons were then separated by cutting vertically through the hypocotyl region resulting in two explants. The epicotyl was subsequently removed on both explants, including all primary leaves and shoot meristems, and both the axillary bud and cotyledonary node were wounded by cutting about 10 times with a scalpel blade perpendicular to the hypocotyl. After all explants in a set were wounded (about 50), they were placed in a 25×100 mm petri plate containing 50 ml co-culture suspension for 30 minutes or inoculated into the 25 ml co-cultivation/Agrobacterium suspension for 30 minutes. The explants were then cultured on an agar-solidified co-culture media (0.5%) either without the addition of a test agent (e.g., cysteine) in 15×100 mm petri plates on top a sterile Whatman®#1 filter paper; five explants per plate with adaxial side down. Five plates were stacked together and wrapped in Parafilm®M then incubated at either 22° C. or 25° C. for 5 days in the dark.
After 5 days, the explants were washed in a liquid shoot induction media (B5 salts, MSIII iron stock, 3% sucrose, 3 mM MES, and filter sterilized B5 vitamins, 1.67 mg/l BAP, 100 mg/l cefotaxime, and 500 mg/l ticarcillin; pH 5.6) to remove excess Agrobacterium. Seven to ten explants from each cysteine level were washed in liquid shoot induction medium and placed in GUS histochemical stain (Jefferson et al., 1987). These explants were scored for GUS transient expression. Five to ten explants from each group were imbedded into a single 25×100 mm petri plate with solid shoot induction media (0.8% agar and agent, e.g., 400 mg/l cysteine) containing PPT concentrations of 1.33 mg/l, 3.33 mg/l, or 5.0 mg/l for selection. The plates were then incubated in a growth chamber with a fluctuating temperature between 18° C.-30° C. under a 18 hours light/6 hours dark cycle at 90-150 μE/m^2s.
The level of infection was scored using the GUS gene as a phenotypic marker immediately after co-culture and again after 4 weeks in shoot induction media. As it can be difficult to score the explants after co-cultivation due to the variation among explants and, in some cases, a complete staining of the target tissues, 6 categories were formed to assess the success of infection: • 4) None=There were no GUS positive sectors on any of the explants; • 5) Very low=Not all explants have GUS positive sectors, however, some have discrete foci usually seen on the hypocotyl or cot-node region. • 6) Low=More than ¾ the explants have GUS positive sectors in discrete foci on the hypocotyl and the cot-node region, but the foci are not numerous (<20). • 7) Medium=More than ½ the explants have significant GUS positive sectors at the cot-node region and hypocotyl, some seen as long lines of cells or larger sectors. • 8) Good=More than ¾ the explants have significant staining at the hypocotyl, the entire cot-node region, and on the cotyledons. […] Almost all explants have regions that are completely GUS positive. To reduce bias, samples were chosen at random and the level of infection scored before noting the treatment conditions. Samples that were between two categories are marked accordingly; those samples that resembled one category more than another were marked with a capital “X” and the other with a lowercase “x”.
Wounded soybean cot-node explants prepared from the cultivar ‘Bert’ were co-cultivated with Agrobacterium on solid co-cultivation medium containing various levels of cysteine for 5 days.

[2] = system: grape; settings: Perl et al., 1996; cited from earlier work
[3] = system: Japonica rice meristem cultures; settings: individually or in combination; Enríguez-Obregón et al., 1999; cited from earlier work
[4] = system: soybean cot-node explants; test: GUS+ sectors, shoots and shoot primordia after 28 days (4 weeks) on shoot induction medium with PPT (stable transformation); type: cell-based, Glycine max; settings: amended to solid co-cultivation media
Procedure: After 5 days, the explants were washed in a liquid shoot induction media (B5 salts, MSIII iron stock, 3% sucrose, 3 mM MES, and filter sterilized B5 vitamins, 1.67 mg/l BAP, 100 mg/l cefotaxime, and 500 mg/l ticarcillin; pH 5.6) to remove excess Agrobacterium. Seven to ten explants from each cysteine level were washed in liquid shoot induction medium and placed in GUS histochemical stain (Jefferson et al., 1987). These explants were scored for GUS transient expression. Five to ten explants from each group were imbedded into a single 25×100 mm petri plate with solid shoot induction media (0.8% agar and agent, e.g., 400 mg/l cysteine) containing PPT concentrations of 1.33 mg/l, 3.33 mg/l, or 5.0 mg/l for selection. The plates were then incubated in a growth chamber with a fluctuating temperature between 18° C.-30° C. under a 18 hours light/6 hours dark cycle at 90-150 μE/m^2s. The explants were removed from the chamber after 14 days and transferred to fresh shoot induction media containing herbicide selection. During the transfer, the hypocotyl was carefully removed from the developing shoot mass and imbedded into the media with the differentiating tissue flush with the media surface. The plates were placed back into the growth chamber for an additional 2 weeks. At the 4 week time point, explants without de novo shoot production were discarded. The cotyledons were then removed from the differentiating tissue by cutting at the base of the node and the callus trimmed before transferring into shoot elongation media containing MS salts (murashige and Skoog, 1962), MSIII iron stock, 3% sucrose, 3 mM MES, 0.8% agar, and filter sterilized B5 vitamins, 50 mg/l asparagine, 100 mg/l pyroglutamic acid, 1 mg/l zeatin riboside, 0.1 mg/l indole-acetic acid, 0.5 mg/l GA3, 100 mg/l cefotaxime, 500 mg/l ticarcillin, 1.3-5 mg/l PPT; pH 5.6). Also at this time, a percentage of the explants were sliced into about 10 sections and stained for both GUS positive sectors and GUS positive shoots. Every 2 weeks the explants were transferred into new shoot elongation media after removing dead plant tissue and the bottom of the explant cut to encourage shoot elongation of transformed shoots. For the 4 week data, the minimum number of transformation events was recorded. Those explants with a GUS positive sector in the differentiating tissue giving rise to shoots were recorded with the number of transformation events in bold and italicized (FIGS. 2-5). Shoot data was obtained by recording the number of fully formed shoots seen on an explant. […] To determine the effect of adding cysteine to the co-cultivation medium on stable transformation, co-cultured explants were cultured for 28 days on a shoot-inducing medium containing the herbicide, phosphinothricin (PPT). During the 28 day incubation, the explants usually form de novo callus and shoots in the cot-node region in a structure referred to as a callus/shoot pad (FIG. 9). The callus/shoot pads were sliced in approximately 5 mm sections, immersed into GUS histochemical stain, and scored for GUS^+ sectors throughout the callus/shoot pad. […] The formation of transgenic shoot primordia and sectors extending into developing shoot tissues were also scored on 28 day sections of explants co-cultivated on 0 and 400 mg/l cysteine (FIG. 10A). Only those GUS^+ shoot primordia with obvious trichomes, which are characteristic to leaf tissue, or GUS^+ sectors originating and extending into the tissue at the base of developing shoots (referred to hereafter as differentiating tissue) were scored (FIG. 1A2).

[5] = Bert, LBA4404 pTOK233, agent in solid co-cultivation media, concentrations of Table 1, 5-day incubation
[6] = agent added to co-cultivation medium

O[C@H](CS)[C@H](O)CS (racemic) [DTT, dithiothreitol]
GUS+ staining after co-cultivation [1, 5]: increases | Agrobacterium-mediated T-DNA transfer/delivery into cot-node cells [1, 6]: increased | Agrobacterium-mediated T-DNA transfer/delivery into cot-node cells ([1]; agent added to co-cultivation medium, listed as dithiothreitol): Increases | plant viability after Agrobacterium-mediated transformation of grape [2]: increase plant viability

O=C1O[C@H]([C@@H](O)CO)C(O)=C1O [Ascorbic acid]
damage and viability of Japonica rice meristem cultures [3]: decreased damage and increased viability

Cc1cc(-c2ccc(S(=O)(=O)O)cc2)c2ccc3c(-c4ccc(S(=O)(=O)O)cc4)cc(C)nc3c2n1 [Bathocuproine disulfonic acid]
GUS+ staining after co-cultivation [1, 5]: increases | Agrobacterium-mediated T-DNA transfer/delivery into cot-node cells [1, 6]: Increases | GUS+ staining with metal chelator ([1]; range from added chelator to added copper or iron): significantly increased

O=S(=O)(O)c1ccc(-c2ccnc3c2ccc2c(-c4ccc(S(=O)(=O)O)cc4)ccnc23)cc1 [Bathophenanthroline disulfonic acid]
GUS+ staining after co-cultivation [1, 5]: increases | Agrobacterium-mediated T-DNA transfer/delivery into cot-node cells [1, 6]: Increases

N[C@H](CS)C(=O)O [D-cysteine]
Agrobacterium-mediated T-DNA transfer/delivery into cot-node cells [1, 6]: Increases | GUS+ foci at the 5-day interval ([1]; amended to solid co-cultivation media): increase | GUS+ foci at the 28-day interval [4]: increase

N[C@@H](CCC(=O)N[C@@H](CS)C(=O)NCC(=O)O)C(=O)O [Glutathione]
infection after co-cultivation (experiment #9) [1]: did not result in an increase in infection | GUS+ staining after co-cultivation [1, 5]: increases | Agrobacterium-mediated T-DNA transfer/delivery into cot-node cells [1, 6]: Increases

N[C@@H](CSSC[C@H](N)C(=O)O)C(=O)O [L-cystine]
Agrobacterium-mediated T-DNA transfer/delivery into cot-node cells [1, 6]: Increases

CSCC[C@H](N)C(=O)O [Methionine]
infection after co-cultivation (experiment #9) [1]: did not result in an increase in infection

O=S([O-])([O-])=S.[Na+].[Na+] [Na-thiosulfate, sodium thiosulfate]
Agrobacterium-mediated T-DNA transfer/delivery into cot-node cells [1]: Increases | GUS+ staining after co-cultivation [1]: increases

O=[N+]([O-])[O-].[Ag+] [silver nitrate]
damage and viability of Japonica rice meristem cultures [3]: decreased damage and increased viability
